Reference: patent US20080031982A1 (Metaproteomics, LLC, priority 2006, published 2008)

Key:
Experiment in all cases: KinaseProfiler Assay
[1] = biological target: PKBβ (Homo sapiens, UniProt P31751)
[2] = biological target: TrkB (Homo sapiens, UniProt Q16620)
[3] = biological target: GSK3α (Homo sapiens, UniProt P49840)
[4] = biological target: Syk (Homo sapiens, UniProt P43405)
[5] = biological target: ErbB4 (Homo sapiens, UniProt Q15303)
[6] = biological target: T1, TSSK2 (Homo sapiens, UniProt Q96PF2)
T1 sequence (Q96PF2 1-358): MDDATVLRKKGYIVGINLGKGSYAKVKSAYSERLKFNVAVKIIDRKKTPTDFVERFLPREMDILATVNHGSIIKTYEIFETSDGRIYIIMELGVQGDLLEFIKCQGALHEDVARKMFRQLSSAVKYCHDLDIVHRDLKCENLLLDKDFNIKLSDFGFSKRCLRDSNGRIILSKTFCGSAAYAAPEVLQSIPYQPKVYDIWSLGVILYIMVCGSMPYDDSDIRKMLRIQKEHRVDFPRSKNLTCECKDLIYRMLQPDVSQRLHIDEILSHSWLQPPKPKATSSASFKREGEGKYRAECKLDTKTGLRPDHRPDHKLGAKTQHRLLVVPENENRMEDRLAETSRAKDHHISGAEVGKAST

[7] = biological target: Ros (Homo sapiens, UniProt P08922)
[8] = tested on: CK1(y)
[9] = tested on: Rsk1
[10] = biological target: PKBα (Homo sapiens, UniProt P31749)
PKBα, sequence (P31749 whole entry): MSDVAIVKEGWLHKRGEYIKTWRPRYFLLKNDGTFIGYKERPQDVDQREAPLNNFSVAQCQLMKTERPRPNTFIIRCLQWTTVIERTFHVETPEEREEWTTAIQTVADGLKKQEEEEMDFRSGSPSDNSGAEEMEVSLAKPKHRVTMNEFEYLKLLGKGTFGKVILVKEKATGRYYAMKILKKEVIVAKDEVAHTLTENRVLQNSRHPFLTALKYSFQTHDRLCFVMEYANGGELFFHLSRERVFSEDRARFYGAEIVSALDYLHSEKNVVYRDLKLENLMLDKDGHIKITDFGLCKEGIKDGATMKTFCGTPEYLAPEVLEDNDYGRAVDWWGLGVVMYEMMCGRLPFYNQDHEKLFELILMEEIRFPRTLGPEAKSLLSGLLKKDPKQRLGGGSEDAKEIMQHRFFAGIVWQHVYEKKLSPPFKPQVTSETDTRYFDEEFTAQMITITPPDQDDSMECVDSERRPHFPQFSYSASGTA

[11] = biological target: CDK5/p35 (Homo sapiens, UniProt Q00535)
CDK5/p35, sequence (Q00535 whole entry): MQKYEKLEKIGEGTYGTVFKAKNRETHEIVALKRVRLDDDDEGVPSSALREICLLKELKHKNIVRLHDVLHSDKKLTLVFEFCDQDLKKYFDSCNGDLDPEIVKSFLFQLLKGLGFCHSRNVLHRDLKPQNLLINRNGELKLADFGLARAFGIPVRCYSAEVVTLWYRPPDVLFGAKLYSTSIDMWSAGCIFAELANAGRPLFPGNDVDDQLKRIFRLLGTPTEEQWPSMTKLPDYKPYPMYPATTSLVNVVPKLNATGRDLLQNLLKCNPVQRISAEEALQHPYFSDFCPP
CDK5/p35, sequence (Q15078 whole entry partner): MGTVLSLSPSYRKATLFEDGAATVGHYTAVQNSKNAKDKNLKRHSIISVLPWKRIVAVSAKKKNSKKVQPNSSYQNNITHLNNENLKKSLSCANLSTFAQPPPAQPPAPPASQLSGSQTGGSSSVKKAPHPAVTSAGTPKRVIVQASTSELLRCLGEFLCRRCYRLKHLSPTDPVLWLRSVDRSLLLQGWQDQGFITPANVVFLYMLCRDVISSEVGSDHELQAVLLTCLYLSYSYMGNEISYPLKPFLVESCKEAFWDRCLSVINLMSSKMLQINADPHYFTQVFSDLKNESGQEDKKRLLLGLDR

[12] = biological target: CDK9/cyclin T1 (Homo sapiens, UniProt P50750)
CDK9/cyclin T1, sequence (P50750 whole entry): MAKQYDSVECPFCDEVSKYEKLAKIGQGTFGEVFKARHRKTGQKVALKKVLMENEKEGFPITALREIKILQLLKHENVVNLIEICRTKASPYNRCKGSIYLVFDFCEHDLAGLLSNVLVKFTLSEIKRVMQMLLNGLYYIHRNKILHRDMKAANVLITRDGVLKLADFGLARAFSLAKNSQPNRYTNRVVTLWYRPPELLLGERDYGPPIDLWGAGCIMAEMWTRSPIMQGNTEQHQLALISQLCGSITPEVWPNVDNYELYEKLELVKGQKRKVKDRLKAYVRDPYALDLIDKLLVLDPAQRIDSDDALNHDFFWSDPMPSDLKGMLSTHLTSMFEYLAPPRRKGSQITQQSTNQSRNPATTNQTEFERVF
CDK9/cyclin T1, sequence (O60563 whole entry partner): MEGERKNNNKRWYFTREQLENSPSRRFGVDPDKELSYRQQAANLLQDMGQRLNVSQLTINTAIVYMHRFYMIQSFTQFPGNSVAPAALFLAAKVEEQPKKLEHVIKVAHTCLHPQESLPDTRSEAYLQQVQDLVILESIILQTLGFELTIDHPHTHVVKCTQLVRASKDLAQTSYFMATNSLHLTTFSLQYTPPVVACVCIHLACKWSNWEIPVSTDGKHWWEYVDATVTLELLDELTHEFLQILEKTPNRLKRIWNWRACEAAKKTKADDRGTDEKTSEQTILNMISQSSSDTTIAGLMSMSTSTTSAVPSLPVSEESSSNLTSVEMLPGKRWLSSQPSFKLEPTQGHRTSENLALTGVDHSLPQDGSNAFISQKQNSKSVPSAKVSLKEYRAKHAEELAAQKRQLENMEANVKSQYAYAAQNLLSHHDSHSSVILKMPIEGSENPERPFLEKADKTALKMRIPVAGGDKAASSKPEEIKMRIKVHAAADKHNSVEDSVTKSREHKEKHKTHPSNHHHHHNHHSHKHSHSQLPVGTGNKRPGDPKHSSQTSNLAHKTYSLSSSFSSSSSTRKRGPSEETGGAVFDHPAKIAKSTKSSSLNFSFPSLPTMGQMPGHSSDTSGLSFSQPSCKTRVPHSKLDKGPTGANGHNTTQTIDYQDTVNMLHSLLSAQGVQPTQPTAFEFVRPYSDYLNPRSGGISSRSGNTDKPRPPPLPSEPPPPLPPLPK

[13] = biological target: CDK1/cyclinB (Homo sapiens, UniProt P06493)
[14] = biological target: DAPK2 (Homo sapiens, UniProt Q9UIK4)
[15] = biological target: PKCβII (Homo sapiens, UniProt P05771)
PKCβII, sequence (P05771 1-673 isoform P05771-2): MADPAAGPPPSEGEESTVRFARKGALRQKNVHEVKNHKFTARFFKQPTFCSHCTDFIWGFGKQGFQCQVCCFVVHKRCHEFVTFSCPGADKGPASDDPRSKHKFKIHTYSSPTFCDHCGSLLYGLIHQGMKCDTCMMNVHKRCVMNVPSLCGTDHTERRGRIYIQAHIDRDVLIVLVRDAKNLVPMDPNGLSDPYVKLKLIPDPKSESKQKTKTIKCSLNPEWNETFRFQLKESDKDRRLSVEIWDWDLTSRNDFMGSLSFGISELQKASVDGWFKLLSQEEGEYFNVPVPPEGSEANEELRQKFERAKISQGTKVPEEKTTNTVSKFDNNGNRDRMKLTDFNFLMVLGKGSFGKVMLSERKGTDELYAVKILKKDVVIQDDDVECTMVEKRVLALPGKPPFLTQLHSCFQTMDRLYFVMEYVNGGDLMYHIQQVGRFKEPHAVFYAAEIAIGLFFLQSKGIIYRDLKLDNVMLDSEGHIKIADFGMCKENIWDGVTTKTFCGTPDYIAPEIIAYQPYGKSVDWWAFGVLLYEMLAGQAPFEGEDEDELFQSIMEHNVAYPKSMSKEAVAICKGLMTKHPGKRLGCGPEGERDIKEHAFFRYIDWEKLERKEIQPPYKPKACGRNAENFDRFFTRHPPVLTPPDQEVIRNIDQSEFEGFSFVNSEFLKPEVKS

[16] = biological target: MAPKAP-K2 (Homo sapiens, UniProt P49137)
MAPKAP-K2, sequence (P49137 whole entry): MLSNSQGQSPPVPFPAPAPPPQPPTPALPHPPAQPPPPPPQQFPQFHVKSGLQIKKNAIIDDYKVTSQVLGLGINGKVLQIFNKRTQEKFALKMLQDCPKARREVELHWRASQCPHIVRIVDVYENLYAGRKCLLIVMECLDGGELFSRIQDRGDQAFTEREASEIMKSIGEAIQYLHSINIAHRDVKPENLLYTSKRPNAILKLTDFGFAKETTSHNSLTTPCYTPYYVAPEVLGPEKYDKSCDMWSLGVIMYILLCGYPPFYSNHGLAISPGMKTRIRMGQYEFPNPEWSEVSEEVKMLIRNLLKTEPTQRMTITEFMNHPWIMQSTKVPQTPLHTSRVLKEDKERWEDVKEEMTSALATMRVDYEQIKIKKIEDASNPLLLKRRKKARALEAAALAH

[17] = biological target: CDK2/cyclinA (Homo sapiens, UniProt P24941)
[18] = biological target: CK1γ2 (Homo sapiens, UniProt P78368)
CK1γ2, sequence (P78368 whole entry): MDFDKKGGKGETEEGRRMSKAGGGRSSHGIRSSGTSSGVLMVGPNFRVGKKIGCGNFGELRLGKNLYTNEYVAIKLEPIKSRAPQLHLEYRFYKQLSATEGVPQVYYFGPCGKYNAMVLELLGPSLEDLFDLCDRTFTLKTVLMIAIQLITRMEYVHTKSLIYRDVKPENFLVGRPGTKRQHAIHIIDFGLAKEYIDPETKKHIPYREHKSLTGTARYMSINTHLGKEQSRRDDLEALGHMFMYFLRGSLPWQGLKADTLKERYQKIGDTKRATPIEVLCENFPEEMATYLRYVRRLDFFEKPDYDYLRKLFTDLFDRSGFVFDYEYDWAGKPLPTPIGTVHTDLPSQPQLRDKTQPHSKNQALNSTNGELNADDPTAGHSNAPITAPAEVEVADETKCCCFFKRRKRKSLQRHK

[19] = biological target: HIPK2 (Homo sapiens, UniProt Q9H2X6)
[20] = biological target: MSK2 (Homo sapiens, UniProt O75676)
[21] = biological target: p70S6K (Homo sapiens, UniProt P23443)
p70S6K, sequence (P23443 whole entry): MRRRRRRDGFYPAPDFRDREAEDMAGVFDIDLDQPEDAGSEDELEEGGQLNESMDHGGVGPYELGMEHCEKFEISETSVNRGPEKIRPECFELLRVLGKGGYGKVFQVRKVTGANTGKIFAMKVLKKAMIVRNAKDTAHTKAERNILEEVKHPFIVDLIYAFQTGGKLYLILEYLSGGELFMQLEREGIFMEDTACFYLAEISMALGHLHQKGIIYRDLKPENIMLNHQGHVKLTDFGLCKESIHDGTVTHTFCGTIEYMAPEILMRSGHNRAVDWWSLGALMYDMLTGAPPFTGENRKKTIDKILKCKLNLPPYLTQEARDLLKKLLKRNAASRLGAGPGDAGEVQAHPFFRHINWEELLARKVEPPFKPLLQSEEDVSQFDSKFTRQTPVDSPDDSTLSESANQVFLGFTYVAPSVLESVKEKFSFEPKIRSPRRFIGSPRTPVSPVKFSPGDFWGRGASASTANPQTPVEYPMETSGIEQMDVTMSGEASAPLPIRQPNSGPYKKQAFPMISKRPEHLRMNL

[22] = biological target: Fer (Homo sapiens, UniProt P16591)

PKBβ, sequence (P31751 whole entry): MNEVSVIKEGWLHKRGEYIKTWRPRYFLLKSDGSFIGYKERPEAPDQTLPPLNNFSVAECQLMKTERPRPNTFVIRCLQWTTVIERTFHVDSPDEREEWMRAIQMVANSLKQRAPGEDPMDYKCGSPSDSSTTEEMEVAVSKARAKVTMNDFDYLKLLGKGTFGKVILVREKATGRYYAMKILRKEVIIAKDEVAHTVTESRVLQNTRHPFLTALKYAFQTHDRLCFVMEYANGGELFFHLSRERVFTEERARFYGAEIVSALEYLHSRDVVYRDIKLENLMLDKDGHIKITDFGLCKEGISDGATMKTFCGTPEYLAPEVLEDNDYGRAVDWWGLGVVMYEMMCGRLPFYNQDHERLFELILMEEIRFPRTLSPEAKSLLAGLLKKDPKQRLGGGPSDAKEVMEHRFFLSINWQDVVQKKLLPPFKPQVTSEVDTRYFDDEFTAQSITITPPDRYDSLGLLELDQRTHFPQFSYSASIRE

## COc1cc(O)c(CC=C(C)C)c(O)c1C(=O)/C=C/c1ccc(O)cc1 [Xanthohumol, xanthohumol]
[1]; 1 ug/ml
  Kinase activity, % of Control: 146 % of Control
[1]; 5 ug/ml
  Kinase activity, % of Control: 102 % of Control
[1]; 25 ug/ml
  Kinase activity, % of Control: 1 % of Control
[1]; 50 ug/ml
  Kinase activity, % of Control: 8 % of Control
[2]; 1 ug/ml
  Kinase activity, % of Control: 95 % of Control
[2]; 5 ug/ml
  Kinase activity, % of Control: 89 % of Control
[2]; 25 ug/ml
  Kinase activity, % of Control: 58 % of Control
[2]; 50 ug/ml
  Kinase activity, % of Control: 3 % of Control
[3]; 1 ug/ml
  Kinase activity, % of Control: 102 % of Control
[3]; 25 ug/ml
  Kinase activity, % of Control: 11 % of Control
[3]; 50 ug/ml
  Kinase activity, % of Control: −4 % of Control
[4]; 1 ug/ml
  Kinase activity, % of Control: 95 % of Control
[4]; 5 ug/ml
  Kinase activity, % of Control: 60 % of Control
[4]; 25 ug/ml
  Kinase activity, % of Control: 32 % of Control
[4]; 50 ug/ml
  Kinase activity, % of Control: 17 % of Control
[5]; 1 ug/ml
  Kinase activity, % of Control: 132 % of Control
[5]; 5 ug/ml
  Kinase activity, % of Control: 85 % of Control
[5]; 25 ug/ml
  Kinase activity, % of Control: 52 % of Control
[5]; 50 ug/ml
  Kinase activity, % of Control: 27 % of Control
[6]; 1 ug/ml
  Kinase activity, % of Control: 102 % of Control
[6]; 5 ug/ml
  Kinase activity, % of Control: 95 % of Control
[6]; 25 ug/ml
  Kinase activity, % of Control: 61 % of Control
[6]; 50 ug/ml
  Kinase activity, % of Control: 48 % of Control
[7]; 1 ug/ml
  Kinase activity, % of Control: 101 % of Control
[7]; 5 ug/ml
  Kinase activity, % of Control: 99 % of Control
[7]; 25 ug/ml
  Kinase activity, % of Control: 85 % of Control
[7]; 50 ug/ml
  Kinase activity, % of Control: 94 % of Control
[8]; 1 ug/ml
  Kinase activity, % of Control: 91 % of Control
[8]; 5 ug/ml
  Kinase activity, % of Control: 63 % of Control
[8]; 25 ug/ml
  Kinase activity, % of Control: 37 % of Control
[8]; 50 ug/ml
  Kinase activity, % of Control: 9 % of Control
[9]; 1 ug/ml
  Kinase activity, % of Control: 34 % of Control
[9]; 5 ug/ml
  Kinase activity, % of Control: 49 % of Control
[9]; 25 ug/ml
  Kinase activity, % of Control: 4 % of Control
[9]; 50 ug/ml
  Kinase activity, % of Control: 0 % of Control
[10]; 1 ug/ml
  Kinase activity, % of Control: 102 % of Control
[10]; 25 ug/ml
  Kinase activity, % of Control: 18 % of Control
[10]; 50 ug/ml
  Kinase activity, % of Control: 5 % of Control
[11]; 1 ug/ml
  Kinase activity, % of Control: 103 % of Control
[11]; 5 ug/ml
  Kinase activity, % of Control: 102 % of Control
[11]; 25 ug/ml
  Kinase activity, % of Control: 41 % of Control
[11]; 50 ug/ml
  Kinase activity, % of Control: 44 % of Control
[12]; 1 ug/ml
  Kinase activity, % of Control: 110 % of Control
[12]; 5 ug/ml
  Kinase activity, % of Control: 107 % of Control
[12]; 25 ug/ml
  Kinase activity, % of Control: 45 % of Control
[12]; 50 ug/ml
  Kinase activity, % of Control: 31 % of Control
[13]; 1 ug/ml
  Kinase activity, % of Control: 118 % of Control
[13]; 5 ug/ml
  Kinase activity, % of Control: 103 % of Control
[13]; 25 ug/ml
  Kinase activity, % of Control: 46 % of Control
[13]; 50 ug/ml
  Kinase activity, % of Control: 18 % of Control
[14]; 1 ug/ml
  Kinase activity, % of Control: 105 % of Control
[14]; 5 ug/ml
  Kinase activity, % of Control: 88 % of Control
[14]; 25 ug/ml
  Kinase activity, % of Control: 45 % of Control
[14]; 50 ug/ml
  Kinase activity, % of Control: 26 % of Control
[15]; 1 ug/ml
  Kinase activity, % of Control: 108 % of Control
[15]; 5 ug/ml
  Kinase activity, % of Control: 108 % of Control
[15]; 25 ug/ml
  Kinase activity, % of Control: 71 % of Control
[15]; 50 ug/ml
  Kinase activity, % of Control: 79 % of Control
[16]; 1 ug/ml
  Kinase activity, % of Control: 99 % of Control
[16]; 5 ug/ml
  Kinase activity, % of Control: 95 % of Control
[16]; 25 ug/ml
  Kinase activity, % of Control: 6 % of Control
[16]; 50 ug/ml
  Kinase activity, % of Control: 8 % of Control
[17]; 1 ug/ml
  Kinase activity, % of Control: 107 % of Control
[17]; 5 ug/ml
  Kinase activity, % of Control: 96 % of Control
[17]; 25 ug/ml
  Kinase activity, % of Control: 57 % of Control
[17]; 50 ug/ml
  Kinase activity, % of Control: 6 % of Control
[18]; 1 ug/ml
  Kinase activity, % of Control: 92 % of Control
[18]; 5 ug/ml
  Kinase activity, % of Control: 48 % of Control
[18]; 25 ug/ml
  Kinase activity, % of Control: 30 % of Control
[18]; 50 ug/ml
  Kinase activity, % of Control: 12 % of Control
[19]; 1 ug/ml
  Kinase activity, % of Control: 110 % of Control
[19]; 5 ug/ml
  Kinase activity, % of Control: 98 % of Control
[20]; 1 ug/ml
  Kinase activity, % of Control: 126 % of Control
[20]; 5 ug/ml
  Kinase activity, % of Control: 61 % of Control
[20]; 25 ug/ml
  Kinase activity, % of Control: 8 % of Control
[20]; 50 ug/ml
  Kinase activity, % of Control: 19 % of Control
[21]; 1 ug/ml
  Kinase activity, % of Control: 94 % of Control
[21]; 5 ug/ml
  Kinase activity, % of Control: 48 % of Control
[21]; 25 ug/ml
  Kinase activity, % of Control: 19 % of Control
[21]; 50 ug/ml
  Kinase activity, % of Control: 7 % of Control
[22]; 1 ug/ml
  Kinase activity, % of Control: 55 % of Control
[22]; 5 ug/ml
  Kinase activity, % of Control: 20 % of Control
[22]; 25 ug/ml
  Kinase activity, % of Control: 10 % of Control
[22]; 50 ug/ml
  Kinase activity, % of Control: 1 % of Control
